Measured values: paper PMC10053925, “Virtual Screening of Novel 24-Dehydroxysterol Reductase (DHCR24) Inhibitors and the Biological Evaluation of Irbesartan in Cholesterol-Lowering Effect” (Molecules, 2023)

What was measured:
[1] = target: T1, 3β-hydroxysterol-Δ(24)-reductase (DHCR24) (Homo sapiens, UniProt Q15392); assay: in vitro turnover to cholesterol by immunoprecipitated DHCR24, HPLC; format: biochemical
T1 construct: DHCR24 immunoprecipitated from HepG2 cells infected with Ad-cmv-DHCR24 (antibody-DHCR24 complex)
T1 sequence (Q15392 23-516): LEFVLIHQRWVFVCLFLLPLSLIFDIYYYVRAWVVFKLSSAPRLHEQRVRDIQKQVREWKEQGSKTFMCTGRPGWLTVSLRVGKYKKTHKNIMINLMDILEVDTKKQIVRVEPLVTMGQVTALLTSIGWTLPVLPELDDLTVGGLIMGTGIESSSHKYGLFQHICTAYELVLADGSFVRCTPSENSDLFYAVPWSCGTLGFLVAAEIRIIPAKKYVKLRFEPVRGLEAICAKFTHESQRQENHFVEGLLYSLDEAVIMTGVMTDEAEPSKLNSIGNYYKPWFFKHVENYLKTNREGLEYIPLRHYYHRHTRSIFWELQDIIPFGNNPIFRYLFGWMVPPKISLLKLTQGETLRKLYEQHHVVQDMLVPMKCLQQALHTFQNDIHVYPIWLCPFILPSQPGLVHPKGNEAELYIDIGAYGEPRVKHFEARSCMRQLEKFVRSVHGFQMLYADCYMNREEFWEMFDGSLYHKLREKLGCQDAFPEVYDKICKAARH

[2] = target: T1, 3β-hydroxysterol-Δ(24)-reductase (DHCR24); assay: immune complex-activity assay; HPLC of desmosterol to cholesterol conversion; format: biochemical

CC(C)=CCC[C@@H](C)[C@H]1CC[C@H]2[C@@H]3CC=C4C[C@@H](O)CC[C@]4(C)[C@H]3CC[C@]12C [DES, desmosterol]
in vitro turnover to cholesterol by immunoprecipitated DHCR24, HPLC [1]: desmosterol in the system can be catalyzed into cholesterol only in the presence of the DHCR24 enzyme

CCCCC1=NC2(CCCC2)C(=O)N1Cc1ccc(-c2ccccc2-c2nnn[nH]2)cc1 [IRB, Irbesartan]
IC50 [2]: 602 nM
